What was measured:
[1] = target: T1, Adrenergic receptor alpha-1 (Rattus norvegicus, UniProt P15823+P23944+P43140); assay type: tissue-based, Frontal cortex
T1 sequence (P15823 whole entry): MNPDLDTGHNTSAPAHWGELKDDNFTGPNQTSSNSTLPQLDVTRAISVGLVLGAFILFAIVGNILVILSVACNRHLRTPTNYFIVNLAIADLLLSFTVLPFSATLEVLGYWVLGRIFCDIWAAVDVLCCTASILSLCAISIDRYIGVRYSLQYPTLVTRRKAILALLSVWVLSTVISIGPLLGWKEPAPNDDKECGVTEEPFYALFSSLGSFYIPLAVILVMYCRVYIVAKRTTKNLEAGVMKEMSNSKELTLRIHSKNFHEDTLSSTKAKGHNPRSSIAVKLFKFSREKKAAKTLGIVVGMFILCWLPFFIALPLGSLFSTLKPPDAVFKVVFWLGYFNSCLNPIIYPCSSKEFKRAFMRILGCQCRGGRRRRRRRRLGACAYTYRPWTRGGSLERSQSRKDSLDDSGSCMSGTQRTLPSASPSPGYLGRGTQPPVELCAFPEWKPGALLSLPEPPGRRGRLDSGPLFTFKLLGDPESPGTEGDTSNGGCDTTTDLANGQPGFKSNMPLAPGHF
T1 sequence (P23944 whole entry): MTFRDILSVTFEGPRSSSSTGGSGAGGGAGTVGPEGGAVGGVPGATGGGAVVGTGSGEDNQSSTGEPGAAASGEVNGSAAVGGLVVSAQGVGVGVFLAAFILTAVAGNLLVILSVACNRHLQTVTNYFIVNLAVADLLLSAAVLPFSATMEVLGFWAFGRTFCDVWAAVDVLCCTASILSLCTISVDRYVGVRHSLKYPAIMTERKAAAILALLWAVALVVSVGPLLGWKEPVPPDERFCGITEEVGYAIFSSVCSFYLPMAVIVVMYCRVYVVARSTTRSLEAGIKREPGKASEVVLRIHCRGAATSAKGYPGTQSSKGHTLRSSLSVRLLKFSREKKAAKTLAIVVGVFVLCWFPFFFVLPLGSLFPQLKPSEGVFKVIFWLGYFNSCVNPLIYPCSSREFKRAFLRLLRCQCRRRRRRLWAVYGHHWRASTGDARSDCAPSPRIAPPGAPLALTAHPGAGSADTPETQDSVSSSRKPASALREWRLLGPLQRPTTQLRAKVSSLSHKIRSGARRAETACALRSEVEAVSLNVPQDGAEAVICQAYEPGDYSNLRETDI
T1 sequence (P43140 whole entry): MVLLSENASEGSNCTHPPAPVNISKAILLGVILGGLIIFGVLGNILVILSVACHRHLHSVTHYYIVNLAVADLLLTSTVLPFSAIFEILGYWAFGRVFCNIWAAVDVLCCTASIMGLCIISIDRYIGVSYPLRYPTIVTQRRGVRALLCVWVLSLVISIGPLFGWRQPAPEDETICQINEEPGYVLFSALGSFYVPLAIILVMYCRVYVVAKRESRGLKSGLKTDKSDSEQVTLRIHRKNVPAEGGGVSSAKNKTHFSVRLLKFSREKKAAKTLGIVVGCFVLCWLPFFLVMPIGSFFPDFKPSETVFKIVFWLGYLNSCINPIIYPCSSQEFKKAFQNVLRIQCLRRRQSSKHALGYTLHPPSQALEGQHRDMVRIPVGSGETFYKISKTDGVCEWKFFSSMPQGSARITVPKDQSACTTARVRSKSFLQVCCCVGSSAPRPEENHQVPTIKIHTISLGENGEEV

D(1A) dopamine receptor [2] = target: T2, D(1A) dopamine receptor (Rattus norvegicus, UniProt P18901)
T2 sequence (P18901 whole entry): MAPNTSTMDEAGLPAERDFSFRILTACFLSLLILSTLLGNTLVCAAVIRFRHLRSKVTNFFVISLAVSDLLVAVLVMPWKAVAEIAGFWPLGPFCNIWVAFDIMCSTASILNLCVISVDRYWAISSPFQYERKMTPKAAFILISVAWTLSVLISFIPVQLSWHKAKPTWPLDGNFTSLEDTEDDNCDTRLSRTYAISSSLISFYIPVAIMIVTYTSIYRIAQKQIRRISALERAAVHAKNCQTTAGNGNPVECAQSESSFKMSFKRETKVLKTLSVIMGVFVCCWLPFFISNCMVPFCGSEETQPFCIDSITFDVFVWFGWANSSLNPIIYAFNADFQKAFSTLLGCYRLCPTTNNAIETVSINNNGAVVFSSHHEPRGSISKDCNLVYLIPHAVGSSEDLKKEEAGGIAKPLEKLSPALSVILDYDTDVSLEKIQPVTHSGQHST

D(3) dopamine receptor [3] = target: T3, D(3) dopamine receptor (Rattus norvegicus, UniProt P19020); design: species or system Tissue
T3 sequence (P19020 whole entry): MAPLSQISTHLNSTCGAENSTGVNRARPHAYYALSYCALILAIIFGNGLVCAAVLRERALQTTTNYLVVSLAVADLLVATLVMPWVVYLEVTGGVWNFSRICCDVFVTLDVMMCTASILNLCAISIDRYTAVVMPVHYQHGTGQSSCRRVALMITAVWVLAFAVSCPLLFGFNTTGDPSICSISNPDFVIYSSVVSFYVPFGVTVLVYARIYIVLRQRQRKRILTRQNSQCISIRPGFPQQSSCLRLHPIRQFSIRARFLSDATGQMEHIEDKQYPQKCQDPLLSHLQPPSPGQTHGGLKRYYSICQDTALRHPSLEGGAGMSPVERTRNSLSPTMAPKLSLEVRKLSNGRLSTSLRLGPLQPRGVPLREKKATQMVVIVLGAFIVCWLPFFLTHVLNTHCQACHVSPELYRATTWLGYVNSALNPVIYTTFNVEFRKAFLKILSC

[4] = target: T4, Muscarinic acetylcholine receptor M1 (Rattus norvegicus, UniProt P08482); assay: biochemical; assay type: tissue-based, Frontal cortex
T4 sequence (P08482 whole entry): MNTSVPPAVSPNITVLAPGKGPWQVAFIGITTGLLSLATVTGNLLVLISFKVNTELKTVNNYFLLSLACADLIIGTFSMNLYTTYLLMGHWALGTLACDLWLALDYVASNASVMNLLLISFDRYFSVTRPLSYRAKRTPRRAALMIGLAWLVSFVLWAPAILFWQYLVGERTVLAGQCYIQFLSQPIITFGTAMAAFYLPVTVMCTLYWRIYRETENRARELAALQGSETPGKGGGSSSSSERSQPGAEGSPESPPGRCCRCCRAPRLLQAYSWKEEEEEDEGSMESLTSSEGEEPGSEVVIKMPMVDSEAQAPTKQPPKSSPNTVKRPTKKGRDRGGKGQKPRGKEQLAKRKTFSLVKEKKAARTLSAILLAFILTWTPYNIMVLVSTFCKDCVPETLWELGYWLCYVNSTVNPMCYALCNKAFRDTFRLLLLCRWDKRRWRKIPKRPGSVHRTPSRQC

Rattus norvegicus [5] = organism: Rattus norvegicus; conditions: in vivo
Mus musculus [6] = organism: Mus musculus; assay: animal or person; assay type: functional; conditions: po
Mus musculus [7] = organism: Mus musculus; assay: animal or person; assay type: functional; conditions: dose 7.9 mg/kg, route oral
Mus musculus [8] = organism: Mus musculus; assay: animal or person; assay type: functional; conditions: route oral
[9] = target: T5, Adrenergic receptor alpha-2 (Rattus norvegicus, UniProt P22086+P19328+P22909); assay type: tissue-based, Frontal cortex
T5 sequence (P22086 whole entry): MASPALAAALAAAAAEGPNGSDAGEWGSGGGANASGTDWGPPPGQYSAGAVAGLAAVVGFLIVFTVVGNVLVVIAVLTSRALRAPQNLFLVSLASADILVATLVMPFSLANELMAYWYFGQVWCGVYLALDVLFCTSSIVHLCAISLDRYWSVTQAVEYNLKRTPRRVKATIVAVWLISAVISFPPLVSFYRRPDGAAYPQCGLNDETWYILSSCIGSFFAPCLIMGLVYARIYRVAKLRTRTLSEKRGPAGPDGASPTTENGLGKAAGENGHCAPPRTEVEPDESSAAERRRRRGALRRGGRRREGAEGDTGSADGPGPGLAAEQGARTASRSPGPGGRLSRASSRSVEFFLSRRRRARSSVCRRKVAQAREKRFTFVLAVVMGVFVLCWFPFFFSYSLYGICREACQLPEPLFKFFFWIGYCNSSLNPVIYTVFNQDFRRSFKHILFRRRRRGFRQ
T5 sequence (P19328 whole entry): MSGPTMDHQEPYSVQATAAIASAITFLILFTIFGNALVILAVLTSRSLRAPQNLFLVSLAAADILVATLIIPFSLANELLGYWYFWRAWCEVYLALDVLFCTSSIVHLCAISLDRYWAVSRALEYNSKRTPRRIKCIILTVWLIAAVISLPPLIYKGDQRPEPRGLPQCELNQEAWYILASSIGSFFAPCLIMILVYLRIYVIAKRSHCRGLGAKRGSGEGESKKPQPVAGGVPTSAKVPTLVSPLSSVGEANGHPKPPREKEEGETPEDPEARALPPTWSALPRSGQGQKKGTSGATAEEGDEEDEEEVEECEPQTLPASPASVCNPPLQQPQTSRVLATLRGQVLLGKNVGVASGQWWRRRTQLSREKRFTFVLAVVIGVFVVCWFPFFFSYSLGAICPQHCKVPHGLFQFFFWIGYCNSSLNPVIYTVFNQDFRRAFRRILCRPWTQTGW
T5 sequence (P22909 whole entry): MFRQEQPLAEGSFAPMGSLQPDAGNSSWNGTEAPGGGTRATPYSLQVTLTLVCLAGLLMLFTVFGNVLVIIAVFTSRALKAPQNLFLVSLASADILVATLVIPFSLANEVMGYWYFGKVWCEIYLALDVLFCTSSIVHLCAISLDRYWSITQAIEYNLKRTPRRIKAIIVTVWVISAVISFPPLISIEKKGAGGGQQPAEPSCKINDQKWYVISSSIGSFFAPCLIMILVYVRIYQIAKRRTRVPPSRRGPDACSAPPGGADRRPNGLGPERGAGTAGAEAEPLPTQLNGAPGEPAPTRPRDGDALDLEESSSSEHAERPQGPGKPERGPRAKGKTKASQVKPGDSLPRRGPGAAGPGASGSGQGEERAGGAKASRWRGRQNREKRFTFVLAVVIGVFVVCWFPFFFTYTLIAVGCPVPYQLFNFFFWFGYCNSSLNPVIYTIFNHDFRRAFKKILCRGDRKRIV

Mus musculus [10] = organism: Mus musculus; assay: animal or person; assay type: functional; conditions: sc, route subcutaneous
Rattus norvegicus [11] = organism: Rattus norvegicus; conditions: in vivo; remark: listed apart in the source
Rattus norvegicus [12] = organism: Rattus norvegicus; conditions: in vivo; remark: listed apart in the source
Mus musculus [13] = organism: Mus musculus; assay: animal or person; assay type: functional; conditions: sc, dose 0.19 mg/kg, route subcutaneous
Rattus norvegicus [14] = organism: Rattus norvegicus; conditions: in vivo; remark: listed apart in the source
Rattus norvegicus [15] = organism: Rattus norvegicus; conditions: in vivo; remark: listed apart in the source
Mus musculus [16] = organism: Mus musculus; assay: animal or person; assay type: functional; conditions: sc, route subcutaneous; remark: listed apart in the source
Rattus norvegicus [17] = organism: Rattus norvegicus; conditions: in vivo; remark: listed apart in the source
Rattus norvegicus [18] = organism: Rattus norvegicus; conditions: in vivo; remark: listed apart in the source
Rattus norvegicus [19] = organism: Rattus norvegicus; conditions: in vivo; remark: listed apart in the source
Rattus norvegicus [20] = organism: Rattus norvegicus; conditions: in vivo; remark: listed apart in the source
[21] = target: T6, 5-hydroxytryptamine receptor 2A (Rattus norvegicus, UniProt P14842); assay: biochemical
T6 sequence (P14842 whole entry): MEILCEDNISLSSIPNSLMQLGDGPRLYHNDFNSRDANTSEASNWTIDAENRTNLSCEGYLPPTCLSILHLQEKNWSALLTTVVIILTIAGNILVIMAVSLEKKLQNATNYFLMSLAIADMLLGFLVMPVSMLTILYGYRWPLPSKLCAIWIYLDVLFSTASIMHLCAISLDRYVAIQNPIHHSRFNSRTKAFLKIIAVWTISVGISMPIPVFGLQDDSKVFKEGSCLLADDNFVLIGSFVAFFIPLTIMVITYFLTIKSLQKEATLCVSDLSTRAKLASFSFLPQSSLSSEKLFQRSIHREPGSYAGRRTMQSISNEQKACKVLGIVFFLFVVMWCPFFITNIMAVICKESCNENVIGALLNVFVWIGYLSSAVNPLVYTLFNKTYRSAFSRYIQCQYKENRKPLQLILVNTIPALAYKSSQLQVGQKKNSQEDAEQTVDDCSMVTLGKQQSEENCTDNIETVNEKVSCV

[22] = target: T6, 5-hydroxytryptamine receptor 2A; assay: biochemical; assay type: tissue-based, Cerebral cortex
Histamine H1 receptor = Histamine H1 receptor (Rattus norvegicus, UniProt P31390); assay: biochemical; assay type: tissue-based, Frontal cortex
Sequence of Histamine H1 receptor (P31390 whole entry): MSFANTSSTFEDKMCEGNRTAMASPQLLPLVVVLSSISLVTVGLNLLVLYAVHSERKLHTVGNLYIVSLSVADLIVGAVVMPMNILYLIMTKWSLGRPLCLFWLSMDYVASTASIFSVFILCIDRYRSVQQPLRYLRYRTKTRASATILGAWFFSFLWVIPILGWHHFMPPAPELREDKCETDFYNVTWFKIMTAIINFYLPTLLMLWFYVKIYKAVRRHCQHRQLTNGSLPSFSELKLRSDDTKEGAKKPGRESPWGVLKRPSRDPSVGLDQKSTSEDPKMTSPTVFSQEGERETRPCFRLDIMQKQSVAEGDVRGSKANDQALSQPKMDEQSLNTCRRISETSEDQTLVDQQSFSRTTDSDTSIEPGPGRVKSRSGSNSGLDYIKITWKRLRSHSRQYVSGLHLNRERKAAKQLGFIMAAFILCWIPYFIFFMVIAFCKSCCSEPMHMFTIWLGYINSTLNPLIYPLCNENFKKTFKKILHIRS

D(3) dopamine receptor [23] = target: T3, D(3) dopamine receptor; design: species or system Tissue; remark: listed apart in the source
D(3) dopamine receptor [24] = target: T3, D(3) dopamine receptor; design: species or system Tissue; remark: listed apart in the source
Mus musculus [25] = organism: Mus musculus; assay: animal or person; assay type: functional; conditions: sc
Mus musculus [26] = organism: Mus musculus; assay: animal or person; assay type: functional; conditions: sc, dose 0.83 mg/kg, route subcutaneous
Mus musculus [27] = organism: Mus musculus; assay: animal or person; assay type: functional; conditions: sc, dose 1.5 mg/kg, route subcutaneous
D(1A) dopamine receptor [28] = target: T2, D(1A) dopamine receptor; remark: listed apart in the source

Structure (SMILES)	Ki [1]	Ki (D(1A) dopamine receptor [2])	Ki (D(3) dopamine receptor [3])	Ki [4]	Ki [21]	further results
CN1CCN([C@H]2Cc3ccccc3Sc3ccc(Cl)cc32)CC1		1.9 nM	0.4 nM			
CN1CCN([C@H]2Cn3cccc3Sc3ccc(Cl)cc32)CC1			1.85 nM			
CN1CCN([C@@H]2Cn3cccc3Sc3ccc(Cl)cc32)CC1	0.82 nM		110 nM	287 nM		AUC (Rattus norvegicus [5]): 133; ED50 at […] (Mus musculus [6]): 115 µmol/kg; ED50 at […] (Mus musculus [7]): 19.5 µmol/kg; ED50 (Mus musculus [8]): 14.3 µmol/kg; Ki [9]: 209 nM; ED50 (Mus musculus [10]): 0.24 µmol/kg; AUC (Rattus norvegicus [11]): 174.4; AUC (Rattus norvegicus [12]): 156.3; ED50 at […] (Mus musculus [13]): 0.48 µmol/kg; AUC (Rattus norvegicus [14]): 145.4; AUC (Rattus norvegicus [15]): 163.4; ED50 (Mus musculus [16]): 45 µmol/kg; AUC (Rattus norvegicus [17]): 133.6; AUC (Rattus norvegicus [18]): 193.8; AUC (Rattus norvegicus [19]): 179; AUC (Rattus norvegicus [20]): 20.35
CSc1ccc2c(c1)C(N1CCN(C)CC1)Cc1ccccc1S2 (stereo not given) [METITEPINE]						Ki (D(1A) dopamine receptor [28]): 2 nM
OCCN1CCN(C2Cn3cccc3Sc3ccc(Cl)cc32)CC1 (racemic)		27 nM	3.6 nM		8.8 nM	
CCN1CCN(C2Cn3cccc3Sc3ccc(Cl)cc32)CC1 (racemic)		18.2 nM	4.5 nM		5.8 nM	
OCCN1CCN(C2Cn3cccc3Sc3ccc(Br)cc32)CC1 (racemic)		20 nM	10 nM		23 nM	
CCN1CCN(C2Cn3cccc3Sc3ccc(Br)cc32)CC1 (racemic)		14 nM	7.4 nM		23 nM	

Now from value to compound, other results behind:

Ki [1]	Ki (D(1A) dopamine receptor [2])	Ki (D(3) dopamine receptor [3])	Ki [4]	Ki [21]	Structure (SMILES)	further results
12 nM					CN1CCN([C@H]2Cn3cccc3Sc3ccc(F)cc32)CC1 (stereo in doubt; (+)-6b)	
4.5 nM			> 10000 nM		CN1CCN([C@H]2Cn3cccc3Sc3ccc(F)cc32)CC1 (stereo in doubt; (-)-6b)	
	14 nM			12 nM	CN1CCN(C2Cn3cccc3Sc3ccc(Br)cc32)CC1 (racemic)	
	53 nM	58 nM		16 nM	CN1CCCN(C2Cn3cccc3Sc3ccc(Cl)cc32)CC1 (racemic)	Ki [22]: 53.7 nM
2.9 nM	72 nM		6300 nM	7.1 nM	OCCN1CCN(C2Cn3cccc3Sc3ccc(F)cc32)CC1 (racemic)	Ki (Histamine H1 receptor): 7.1 nM; Ki [22]: 74.1 nM; Ki (D(3) dopamine receptor [23]): 13.2 nM; Ki (D(3) dopamine receptor [24]): 13 nM
18.8 nM			2270 nM		CN1CCN([C@@H]2Cn3cccc3Sc3ccccc32)CC1 (stereo in doubt; (+)-6a)	ED50 (Mus musculus [25]): 269 µmol/kg; Ki (Histamine H1 receptor): 9.5 nM; ED50 at […] (Mus musculus [26]): 2.8 µmol/kg; ED50 at […] (Mus musculus [27]): 5.2 µmol/kg
0.4 nM	31 nM		2340 nM	4.3 nM	CCN1CCN(C2Cn3cccc3Sc3ccc(F)cc32)CC1 (racemic)	Ki (Histamine H1 receptor): 4.3 nM; Ki (D(3) dopamine receptor [23]): 18.2 nM; Ki (D(3) dopamine receptor [24]): 18 nM

Reference: ChEMBL document CHEMBL1135802, “Pyrrolo[1,3]benzothiazepine-based atypical antipsychotic agents. Synthesis, structure-activity relationship, molecular modeling, and biological studies” (J Med Chem, 2002)
